From US20200309767A1, “HIGH-THROUGHPUT IMAGING-BASED METHODS FOR PREDICTING CELL-TYPE-SPECIFIC TOXICITY OF XENOBIOTICS WITH DIVERSE CHEMICAL STRUCTURES” (priority 2015, published 2020)
Entries after “also recorded” stand apart in the source; their conditions may differ. Read-outs that look alike come from different tables or passages of the source.

Tests used:
[1] = tested on: human proximal tubular cells (PTCs); conditions: cited from earlier work
human kidney = conditions: cited from earlier work
liver = conditions: in vivo; cited from earlier work
HK-2 cells = conditions: previously observed (Wu et al.); cited from earlier work
[2] = tested on: histone H2AX phosphorylated on serine 139 (γH2AX); format: cell-based, human
lung = conditions: human, in vivo; cited from earlier work
primary PTCs = conditions: 1000 μg/mL

Molecule	PTC Toxicity ([1]; human, in vivo)	PTC-toxic ([1]; human, in vivo)	Nephrotoxic (human kidney; in vivo)	Hepatotoxic (liver)	apoptotic responses (HK-2 cells)	change in γH2AX levels [2]	Pulmonotoxic (lung)	change in γH2AX levels ([2]; HPTC-B results)	cells with increased annexin-V levels (primary PTCs; 16 hours) [%]	increase in cell death rates (primary PTCs; within the measured period (16 hours))	PTC Toxicity ([1]; known in vivo group, Toxic / Non-toxic)	PTC-toxic ([1]; known toxicity flag 1/0)	Nephrotoxic (human kidney; known human kidney toxicity flag 1/0)
O=c1[nH]cc(F)c(=O)[nH]1 [5-Fluorouracil]	Toxic	1	1	1	lack of apoptotic responses	–	–	–	–	–	–	–	–
N.N.[Cl][Pt][Cl] [Cisplatin]	–	–	–	–	–	increasing levels	–	–	–	–	–	–	–
CCC[C@@H]1C[C@@H](C(=O)N[C@@H]([C@H]2O[C@H](SC)[C@H](O)[C@@H](O)[C@H]2O)[C@@H](C)O)N(C)C1 [Lincomycin]	Non-toxic	0	1	0	–	small or no change	–	–	–	–	–	–	–
[Cl-].[Li+] [Lithium chloride]	Non-toxic	0	1	0	–	small or no change	0	–	–	–	–	–	–
C[C@@H]1Cc2c(Cl)cc(C(=O)N[C@@H](Cc3ccccc3)C(=O)O)c(O)c2C(=O)O1 [Ochratoxin A]	–	–	–	0	–	–	–	increasing levels; also recorded: large increase	~25	very small or no increase	Toxic	1	1
C[n+]1ccc(-c2cc[n+](C)cc2)cc1 [Paraquat]	Toxic	1	1	1	–	–	1	–	–	–	–	–	–
NC(=O)c1ncn([C@@H]2O[C@H](CO)[C@@H](O)[C@H]2O)n1 [Ribavirin]	Non-toxic	0	0	0	–	small or no change	–	–	–	–	–	–	–
C[C@H](Cn1cnc2c(N)ncnc21)OCP(=O)(O)O [Tenofovir]	Toxic	1	1	0	–	–	0	–	–	–	–	–	–
Gentamicin	Toxic	1	1	0	lack of apoptotic responses	–	–	–	–	–	–	–	–
